The source of these data is paper PMC5809414, “Physician-initiated clinical study of limb ulcers treated with a functional peptide, SR-0379: from discovery to a randomized, double-blind, placebo-controlled trial” (NPJ Aging and Mechanisms of Disease, 2018).

The test system of data set [1] is healthy men. Details: species or system human. The note with it: in vivo. On the procedure:
A closed patch test was performed with SR-0379 at Shinanozaka Clinic (Shinjuku, Tokyo, Japan); the study protocol was approved by the Shinanozaka Clinic institutional review board. The registry number is UMIN000015391, and the URL is https://upload.umin.ac.jp/cgi-open-bin/ctr_e/ctr_view.cgi?recptno=R000017479. Sixty-six men were screened after obtaining informed consent, and a total of 20 healthy men were enrolled for the patch test after obtaining informed consent between October and November 2014. The inclusion criteria for healthy men were: (1) adult age (≧20 years and ≦40 years); (2) body mass index (≧18.5 and <25.0 kg/m^2); and (3) systolic blood pressure (SBP, ≦140 mmHg) and diastolic blood pressure (DBP, ≦90 mmHg); additionally, patients were to be within normal limits in an ECG test. The exclusion criteria were drug allergy or a history thereof, atopic dermatitis or allergic contact dermatitis, skin with dermatitis or inflammation, organ failure (heart, liver, kidney, blood), and others. The closed patch test was performed with a Finn chamber (7 mm) using filter paper containing 0.015 mL of SR-0379 solution (0%, 0.02%, 0.1%, 0.25%, or 0.5%). The allocation was generated by a coordinator and masked for the evaluator. […] Results were evaluated at 1 and 24 h after removal and graded according to the International Contact Dermatitis Research Group criteria (grades 1–6). […]

For data set [2], the system named is Pseudomonas aeruginosa, Staphylococcus aureus, MRSA, and Streptococcus pyogenes. The data set is described as follows: Bacterial wound cultures (change pre to post). The format is in vivo, human. The note with it: n = 3. On the procedure: The primary outcome was the rate of wound size reduction at 4 weeks after the first treatment compared with pre-treatment wound size. Additionally, the following secondary endpoints were measured at 4 weeks after the first treatment and compared with pre-treatment status: time to wound closure; 50% wound size reduction ratio; quantification of Pseudomonas aeruginosa, Staphylococcus aureus, MRSA, and Streptococcus pyogenes; and overall evaluated ulcer improvement. Ulcer size was quantified based on skin ulcer pictures according to a defined procedure using ImageJ software and calculated as the percent change. We also used the DESIGN-R score index, which is calculated based on six components (exudate, size, infection/inflammation, granulation tissue, necrotic tissue, and pocket size), as a tool to score pressure ulcer severity.[23] Depth was excluded from the calculation. The total score was calculated by weighting the score of each item; a high score indicates greater severity. The safety of SR-0379 was evaluated during the treatment period (28 days) every 7 days and post-treatment (7 days) according to the Common Terminology Criteria for Adverse Events (version 4.0).

The subject of data set [3] is infected wound. The note with it: rat infected wound model, compared with FGF2; cited from earlier work.
Data set [4] concerns endothelial cell and fibroblast. As to conditions: in vitro; cited from earlier work. An excerpt:
SR-0379 also promoted angiogenesis, granulation tissue formation, and endothelial cell and fibroblast proliferation in vitro. In this study, we conducted a multi-center, double-blinded, randomized phase I/IIa clinical study to evaluate the safety, efficacy, and pharmacokinetics of SR-0379 for the treatment of leg ulcers.

Where a SMILES comes first, the peptide text is derived from it. [ ]: non-standard residue; d: D form.

As for `CC[C@H](C)[C@H](NC(=O)[C@H](CC(C)C)NC(=O)[C@H](CCCCN)NC(=O)[C@H](CC(C)C)NC(=O)[C@@H](N)CCSC)C(=O)N[C@@H](Cc1ccccc1)C(=O)N[C@@H](CC(C)C)C(=O)N[C@@H](Cc1c[nH]cn1)C(=O)N[C@@H](CCCNC(=N)N)C(=O)N[C@@H](CC(C)C)C(=O)N[C@@H](CCCCN)C(=O)N[C@@H](CCCNC(=N)N)C(=O)N[C@@H](CCSC)C(=O)N[C@@H](CCCNC(=N)N)C(=O)N[C@@H](CCCCN)C(=O)N[C@@H](CCCNC(=N)N)C(=O)N[C@@H](CC(C)C)C(=O)N[C@H](CCCCN)C(=O)N[C@@H](CCCNC(=N)N)C(=O)N[C@@H](CCCCN)C(=O)O` [SR-0379] (H-MLKLIFLHRLKRMRKRL[dK]RK-OH; N-terminus and C-terminus assumed), in data set [1], the “skin irritation index scores, assessment” value is “within permitted levels for clinical usage”; the “vital signs and electrocardiogram (ECG)” value is listed as “no abnormal findings”. Also, in data set [2] (0.02% group), the “Bacterial wound cultures, Decrease: number of patients” value (shortened to “Bacterial wound cultures, Decrease”) is recorded as 2; the “Bacterial wound cultures, Increase: number of patients” value (“Bacterial wound cultures, Increase” below) turned out to be 1; the “Bacterial wound cultures, No change: number of patients” value (from here on “Bacterial wound cultures, No change”) was 0. In addition, in data set [2] (0.1% group), the “Bacterial wound cultures, Decrease” value is 2; the “Bacterial wound cultures, Increase” value was 0; the “Bacterial wound cultures, No change” value amounted to 1. Also, in data set [2] (0.5% group), the “Bacterial wound cultures, Decrease” value came out at 1; the “Bacterial wound cultures, Increase” value turned out to be 0; the “Bacterial wound cultures, No change” value is recorded as 1. For the same compound, the wound healing effect entry in data set [3] is “higher than that of fibroblast growth factor 2 (FGF2)”. In addition, the “angiogenesis, granulation tissue formation, and endothelial cell and fibroblast proliferation” value in data set [4] was “promoted”.
